# Measurements published in patent US10294202B2, “Pyrrolidinones as herbicides” (FMC Corporation, priority 2013, dated 2019).
# Key:
# wheat = experiment: Test A pre-/postemergence herbicide test; type: in vivo, Triticum aestivum; settings: Postemergence; for Plant response rating, Wheat: 125 g ai/ha
# Method in brief: (§1)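 Both application timings used compounds in a non-phytotoxic solvent plus surfactant. Pre-emergence: soil sprayed directly after seeding into loam/sand. Post-emergence: foliage of 2–10 cm seedlings (1–2 leaves) sprayed. Injury rated ~10 days later, 0–100.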
# ducksalad = experiment: Test B flooded paddy test; type: in vivo, Heteranthera limosa; settings: 500 g ai/ha, Flood; scale of 0 to 100 where 0 is no effect and 100 is complete control
# Method in brief: (§2)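 Scoring: visual, compared with untreated controls, 0 = no effect through 100 = complete control, taken 13 to 15 days after treatment in the greenhouse. Compounds had been added to paddy water over soil flooded 3 cm deep at the plants' 2-leaf stage.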
# ryegrass, Italian = experiment: Test A pre-/postemergence herbicide test; type: in vivo, Lolium multiflorum
# Method in brief: as §1
# pigweed = experiment: Test A pre-/postemergence herbicide test; type: in vivo, Amaranthus retroflexus
# Method in brief: as §1
# galium = experiment: Test A postemergence herbicide test; type: in vivo, Galium aparine; settings: for Plant response rating, Galium: 125 g ai/ha
# Method in brief: (§3)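 Young potted plants in a loam–sand mix, one- to two-leaf stage and 2–10 cm tall, receive the test chemical postemergence and stay in a greenhouse for approximately 10 days. Injury is then judged by eye against untreated plants, scored 0 (none) to 100 (complete control).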
# sedge, umbrella = experiment: Test B flooded paddy test; type: in vivo, Cyperus difformis; settings: 500 g ai/ha, Flood; scale of 0 to 100 where 0 is no effect and 100 is complete control
# Method in brief: as §2
# corn = experiment: Test A pre-/postemergence herbicide test; type: in vivo, Zea mays; settings: Postemergence
# Method in brief: as §1
# barnyardgrass [1] = experiment: Test A pre-/postemergence herbicide test; type: in vivo, Echinochloa crus-galli
# Method in brief: as §1
# barnyardgrass [2] = experiment: Test B flooded paddy test; type: in vivo, Echinochloa crus-galli; settings: 500 g ai/ha, Flood; scale of 0 to 100 where 0 is no effect and 100 is complete control
# Method in brief: as §2
# ragweed = experiment: Test A pre-/postemergence herbicide test; type: in vivo, Ambrosia elatior
# Method in brief: as §1
# giant foxtail = experiment: Test A pre-/postemergence herbicide test; type: in vivo, Setaria faberii
# Method in brief: as §1
# blackgrass = experiment: Test A postemergence herbicide test; type: in vivo, Alopecurus myosuroides
# Method in brief: as §3
# kochia = experiment: Test A pre-/postemergence herbicide test; type: in vivo, Kochia scoparia
# Method in brief: as §1
# rice = experiment: Test B flooded paddy test; type: in vivo, Oryza sativa; settings: 500 g ai/ha, Flood; scale of 0 to 100 where 0 is no effect and 100 is complete control
# Method in brief: as §2
# [3] = 0 to 100 scale, 0 no effect, 100 complete control
# [4] = 125 g ai/ha, visual rating, 0 to 100 scale, 0 no effect, 100 complete control, approximately 10 days, preemergence
# [5] = Postemergence, 125 g ai/ha, 0 to 100 scale, 0 no effect, 100 complete control
# [6] = preemergence, 500 g ai/ha, 0 to 100 scale
# [7] = 125 g ai/ha, 0 to 100 scale, 0 no effect, 100 complete control
# [8] = visual rating on 0 to 100 scale (0 no effect, 100 complete control), approx. 10 days
# [9] = Postemergence, 125 g ai/ha, visual rating on 0 to 100 scale (0 no effect, 100 complete control), approx. 10 days
# [10] = Preemergence, 125 g ai/ha, 0 to 100 scale where 0 is no effect and 100 is complete control
# [11] = Preemergence, 500 g ai/ha, visual rating on 0 to 100 scale (0 no effect, 100 complete control)
# [12] = 125 g ai/ha, visual rating on 0 to 100 scale (0 no effect, 100 complete control), approx. 10 days
# [13] = 500 g ai/ha, 0 to 100 scale (0 no effect, 100 complete control)
# [14] = Postemergence, 500 g ai/ha, 0 to 100 scale (0 no effect, 100 complete control)
structure (smiles),measurement,setting,value
Cc1ccc(C2CNC(=O)C2C(=O)Nc2ccc(F)c(F)c2F)cc1F (racemic) [Compound 147],"Plant response rating, Wheat",wheat; [3],0
same,"Wheat plant response rating (0 to 100 scale, 0 is no effect, 100 is complete control)",wheat; 500 g ai/ha,40
same,"Plant response rating, Ducksalad",ducksalad,100
same,"Plant response rating, Ryegrass, Italian","ryegrass, Italian; [4]",0
same,"Plant response rating, Ryegrass, Italian","ryegrass, Italian; [5]",20
same,"Ryegrass, Italian plant response rating (0 to 100 scale, 0 is no effect, 100 is complete control)","ryegrass, Italian; Postemergence, 500 g ai/ha",50
same,"Plant response rating, Ryegrass, Italian","ryegrass, Italian; [6]",40
same,"Plant response rating, Pigweed",pigweed; [4],0
same,"Plant response rating, Pigweed",pigweed; [5],0
same,"Pigweed plant response rating (0 to 100 scale, 0 is no effect, 100 is complete control)","pigweed; Postemergence, 500 g ai/ha",10
same,"Plant response rating, Pigweed",pigweed; [6],0
same,"Plant response rating, Galium",galium; [3],50
same,"Galium plant response rating (0 to 100 scale, 0 is no effect, 100 is complete control)",galium; 500 g ai/ha,60
same,"Plant response rating, Sedge, Umbrella","sedge, umbrella",0
same,"Plant response rating, Corn",corn; [7],0
same,"Corn plant response rating (0 to 100 scale, 0 is no effect, 100 is complete control)",corn; 500 g ai/ha,50
same,"Plant response rating, Barnyardgrass",barnyardgrass [1]; [4],90
same,"Plant response rating, Barnyardgrass",barnyardgrass [1]; [5],90
same,"Barnyardgrass plant response rating (0 to 100 scale, 0 is no effect, 100 is complete control)","barnyardgrass [1]; Postemergence, 500 g ai/ha",90
same,"Plant response rating, Barnyardgrass","barnyardgrass [1]; preemergence, 500 g ai/ha, 0 to 100 scale (0 no effect, 100 complete control)",90
same,"Plant response rating, Barnyardgrass",barnyardgrass [2],70
same,"Plant response rating, Ragweed",ragweed; [4],0
same,"Plant response rating, Ragweed",ragweed; [5],0
same,"Ragweed plant response rating (0 to 100 scale, 0 is no effect, 100 is complete control)","ragweed; Postemergence, 500 g ai/ha",50
same,"Plant response rating, Ragweed",ragweed; [6],50
same,"Plant response rating, Foxtail, Giant",giant foxtail; [4],80
same,"Plant response rating, Foxtail, Giant",giant foxtail; [5],40
same,"Foxtail, Giant plant response rating (0 to 100 scale, 0 is no effect, 100 is complete control)","giant foxtail; Postemergence, 500 g ai/ha",70
same,"Plant response rating, Foxtail, Giant",giant foxtail; [6],90
same,"Plant response rating, Blackgrass",blackgrass; [7],40
same,"Blackgrass plant response rating (0 to 100 scale, 0 is no effect, 100 is complete control)",blackgrass; 500 g ai/ha,60
same,"Plant response rating, Kochia",kochia; [4],30
same,"Plant response rating, Kochia",kochia; [5],40
same,"Kochia plant response rating (0 to 100 scale, 0 is no effect, 100 is complete control)","kochia; Postemergence, 500 g ai/ha",60
same,"Plant response rating, Kochia",kochia; [6],80
same,"Plant response rating, Rice",rice,0
O=C1NCC(c2ccc(Br)c(Br)c2)C1C(=O)Nc1ccc(F)cc1F (stereo not drawn) [Compound 340],"Plant response rating, Wheat",wheat; [8],0
same,"Plant response rating, Ducksalad",ducksalad,50
same,"Plant response rating, Ryegrass, Italian","ryegrass, Italian; [9]",0
same,"Plant response rating, Ryegrass, Italian","ryegrass, Italian; [10]",0
same,"Ryegrass, Italian plant response rating","ryegrass, Italian; [11]",20
same,"Plant response rating, Pigweed",pigweed; [9],0
same,"Plant response rating, Pigweed",pigweed; [10],0
same,Pigweed plant response rating,pigweed; [11],0
same,"Plant response rating, Galium",galium; [8],0
same,"Plant response rating, Sedge, Umbrella","sedge, umbrella",0
same,"Plant response rating, Corn",corn; [12],0
same,"Plant response rating, Corn",corn; [13],0
same,"Plant response rating, Barnyardgrass",barnyardgrass [1]; [9],30
same,"Plant response rating, Barnyardgrass",barnyardgrass [1]; [14],50
same,"Plant response rating, Barnyardgrass",barnyardgrass [1]; [10],60
same,Barnyardgrass plant response rating,barnyardgrass [1]; [11],80
same,"Plant response rating, Barnyardgrass",barnyardgrass [2],0
same,"Plant response rating, Ragweed",ragweed; [9],0
same,"Plant response rating, Ragweed",ragweed; [10],0
same,Ragweed plant response rating,ragweed; [11],0
same,"Plant response rating, Foxtail, Giant",giant foxtail; [9],30
same,"Plant response rating, Foxtail, Giant",giant foxtail; [14],90
same,"Plant response rating, Foxtail, Giant",giant foxtail; [10],80
same,"Foxtail, Giant plant response rating",giant foxtail; [11],90
same,"Plant response rating, Blackgrass",blackgrass; [12],0
same,"Plant response rating, Blackgrass",blackgrass; [13],20
same,"Plant response rating, Kochia",kochia; [9],0
same,"Plant response rating, Kochia",kochia; [10],0
same,Kochia plant response rating,kochia; [11],0
same,"Plant response rating, Rice",rice,0
